ChEMBL document CHEMBL5365428, “Alkyne as a Latent Warhead to Covalently Target SARS-CoV-2 Main Protease” (J Med Chem, 2023)
Activity calls are given as the source filed them. The calls are words filed in the database; no cut-off is given here.

Test system: Replicase polyprotein 1ab (Severe acute respiratory syndrome coronavirus 2), P0DTD1 [C145A]
Test: Binding affinity to recombinant hexa-His tagged SARS-COV2 main protease C145A mutant expressed in HEK293T cells by in-gel fluorescence analysis
Format: cell-based

C#CC[C@H](NC(=O)C(F)(F)F)C(=O)N1C[C@H]2[C@@H]([C@H]1C(=O)N[C@H](C#C)C[C@@H]1CCNC1=O)C2(C)C
Activity: inactive
